# According to US11491127B2, “Therapeutic use of compounds” (UCL BUSINESS LTD, priority 2010, dated 2022):
# How the values were obtained:
# [1] = tested on: release of 3H arachidonic acid / palmitic acid radiolabel from Dictyostelium cells; assay: Fatty acid release (3H radiolabel release from labelled cells); assay type: cell-based, Dictyostelium discoideum
# [2] = tested on: uptake of 3H arachidonic acid / palmitic acid into Dictyostelium cells; assay: Fatty acid uptake (3H radiolabel incorporation into cells); assay type: cell-based, Dictyostelium discoideum; conditions: 3H-AA; FIG. 9
# [3] = tested on: PTZ-induced epileptiform activity in entorhinal cortex-hippocampal slices; assay: In vitro PTZ acute seizure model, entorhinal cortex-hippocampus slices; assay type: cell-based, rat; conditions: PTZ 2 mM, [K+] 6 mM; compounds equimolar 1 mM; 30 to 40 minutes after application
# Procedure: (§1) The rats (p21) were decapitated after killing by intraperitoneal injection with an overdose of pentobarbitone (500 mg/kg). The brain was removed and placed in ice-cold sucrose solution in mM: NaCl 87, KCl 2.5, MgCl2 7, CaCl2 0.5, NaH2PO4 1.25, sucrose 75, glucose 25, equilibrated with 95% 02/5% CO2 (pH 7.4). Horizontal combined entorhinal cortex-hippocampus slices (350 μm) were prepared with a Leica vibratome (Leica V T1200S) and were then stored in an interface chamber that contained artificial cerebrospinal fluid solution (aCSF) containing in mM: NaCl 119, KCl 2.5, MgSO4 4, CaCl2 4, NaHCO326.2, NaH2PO4 1, glucose 11, and gassed with 95% O2/5% CO2. They were stored for over one hour before being transferred to a submersion recording chamber continually perfused with carbogenated aCSF for recording. Field potential recordings were made by placing glass microelectrodes (˜1-2 MΩ) filled with aCSF solution in stratum radiatum of CA1. Bipolar stimulating electrodes were positioned in the Schaffer collateral/commissural fibre pathway in stratum radiatum to confirm slice viability. In the PTZ acute seizure model, PTZ (2 mM) was added to the perfusate and [K+] was increased to 6 mM in order to induce epileptiform activity (Armand et al., 1998). In the low Mg^2+ acute seizure model, Mg^2+ free aCSF was applied to generate rhythmic short recurrent discharges. Novel anticonvulsants were applied once the frequency and amplitude of the epileptiform discharges were stable over a period of 10 min. Anticonvulsant effects were evaluated by measuring the variation of frequency of the discharges every minute. The data acquired from the 30 to 40 minutes after application novel anticonvulsants were compared by ANOVA followed by post-hoc testing using Tukey test, using SPSS statistical analysis.
# [4] = tested on: low magnesium-induced burst discharges in entorhinal cortex-hippocampal slices; assay: In vitro low Mg2+ acute seizure model, entorhinal cortex-hippocampus slices; assay type: cell-based, rat; conditions: 1 mM, 30-40 minutes after application
# Procedure: as §1, with “In the low Mg^2+ acute seizure model, Mg^2+ free aCSF was applied to generate rhythmic short recurrent discharges. Novel anticonvulsants were applied once the frequency and amplitude of the epileptiform discharges were stable over a period of 10 min.” left out, “The data acquired from the 30 to 40 minutes after application novel anticonvulsants were compared by ANOVA followed by post-hoc testing using Tukey test, using SPSS statistical analysis.” left out
# [5] = tested on: inositol levels in Dictyostelium cells; assay: Inositol levels in treated Dictyostelium cells; assay type: cell-based, Dictyostelium discoideum; conditions: time period causing phosphoinositide attenuation (9 min)
# Procedure: Following a 6 min incubation, labelling solution was removed and cells were lysed in acidified methanol and phospholipids were separated as previously detailed (Williams et al., 1999). Phospholipid labelling was quantified using a Typhoon phosphor-imager. Even loading was determined using total lipid stain with copper sulphate. Inositol levels were measured from five hour developed cells (similar to phospholipid labelling), following lyophilisation, as previously described (Maslanski & Busa, 1990).
# [6] = tested on: phosphoinositide (PIP and PIP2) turnover in Dictyostelium AX2 cells; assay: Dictyostelium phospholipid labelling (PIP and PIP2 turnover); assay type: cell-based, Dictyostelium discoideum; conditions: wild type Dictyostelium; for activity at 500 µM: Dictyostelium, 0.1 h, read-out: PIP Level (% control), Table 1, 0.5 mM compound, 3 min pre-treatment + 6 min labelling
# Procedure: Phospholipid labelling was quantified using a Typhoon phosphor-imager. Even loading was determined using total lipid stain with copper sulphate.
# [7] = tested on: self-sustaining status epilepticus in Sprague Dawley rats; assay: In vivo status epilepticus (perforant path stimulation); set-up: species or system rat; conditions: 400 mg/kg
# Procedure: This method has been described in detail previously (Walker et al., 1999). In brief, male Sprague Dawley rats […] were anesthetized with 1-2% isoflurane in O2. An earth electrode was positioned subcutaneously, and a monopolar recording electrode was implanted stereotactically into the right hippocampus (coordinates, 2.5 mm lateral and 4 mm caudal from bregma). A bipolar stimulating electrode was implanted in the right hemisphere and advanced into the angular bundle (coordinates, 4.4 mm lateral and 8.1 mm caudal from bregma) to stimulate the perforant path. The depths of the electrodes were adjusted to maximize the slope of the dentate granule cell field potential (Guo et al., 1999). The electrodes were held in place with dental acrylic and skull screws. The animals were allowed to recover from anaesthesia. Seven days later, the perforant path was electrically stimulated with 4-5 mA 50 μsec monopolar pulses at 20 Hz for 2 hr; this induced self-sustaining status epilepticus. After 10 min of self-sustaining status epilepticus, compounds or vehicle were administered and the behavioural seizures and EEG were monitored for 3 hours. At this point diazepam (10 mg/kg) was administered to all animals to stop the status epilepticus. Groups were compared by ANOVA followed by post-hoc testing using Tukey test, using SPSS.
# [8] = tested on: inositol trisphosphate (InsP3) levels in Dictyostelium; conditions: Eickholt et al., 2005; cited from earlier work
# [9] = tested on: self-sustaining status epilepticus in Sprague Dawley rats; conditions: previously shown (Chang et al., 2009); cited from earlier work
# [10] = molecular target: T1, human myo-inositol synthase (Homo sapiens, UniProt Q9NPH2); conditions: Shaltiel et al., 2004, 2007a; cited from earlier work
# T1 sequence (Q9NPH2 1-558): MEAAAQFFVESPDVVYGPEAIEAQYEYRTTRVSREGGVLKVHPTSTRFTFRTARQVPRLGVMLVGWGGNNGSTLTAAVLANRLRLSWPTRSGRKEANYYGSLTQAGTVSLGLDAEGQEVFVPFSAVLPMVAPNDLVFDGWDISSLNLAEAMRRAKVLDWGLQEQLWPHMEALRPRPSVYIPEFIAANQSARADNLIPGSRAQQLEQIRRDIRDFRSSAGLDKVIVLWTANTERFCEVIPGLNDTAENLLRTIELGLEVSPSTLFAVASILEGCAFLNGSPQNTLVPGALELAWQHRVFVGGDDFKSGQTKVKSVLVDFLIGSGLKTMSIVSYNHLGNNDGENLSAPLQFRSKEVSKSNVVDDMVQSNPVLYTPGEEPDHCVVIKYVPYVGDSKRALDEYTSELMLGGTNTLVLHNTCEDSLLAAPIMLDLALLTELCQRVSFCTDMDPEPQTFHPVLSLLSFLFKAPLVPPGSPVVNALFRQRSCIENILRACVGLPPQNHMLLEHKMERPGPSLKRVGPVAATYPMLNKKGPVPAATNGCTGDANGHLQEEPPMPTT
smiles,measurement,setting,value
CCCCC(C)CCC(=O)O (centres unmarked) [4-methyloctanoic acid],inhibitory effect on radiolabel release,"[1]; 3H-AA, FIG. 9",weak
same,activity at 500 µM,"[1]; Dictyostelium, 0.5 h, Table 3, 3H-AA labelled cells, 30 min, 0.5 mM treatment, read-out: AA release [% of control]",66%
same,effect on 3H-AA uptake compared with VPA,[2],reduced effect on uptake
same,frequency of epileptiform discharges (seizure discharge frequency),[3],49.1±4.4%
same,frequency of low magnesium-induced burst discharges,[4],almost abolished
same,frequency of low magnesium-induced burst discharges,[4]; listed as 4-MO,1.6±3.1 % of baseline
same,reduction in inositol levels,[5],do not acutely deplete inositol
same,activity at 500 µM,[6],12%
same,reduction of PIP2 signalling,[6]; Table 1,93%
same,reduction of PIP signalling,[6]; Table 1,88%
same,animals in which status epilepticus terminated (spike frequency of less than 1 Hz),[7],all
same,seizure control in words,[7]; 3 hour test period,protected against seizures over the test period
same,animals in which seizures completely stopped,"[7]; after 2 hours, 7 animals per group",7 animals
same,animals in which seizure stop was maintained,[7]; by three hours,five out of seven
same,mean spike frequency,[7]; first hour,39.3±11.3%
same,mean spike frequency,[7]; second hour,18.1±10.3%
same,mean spike frequency,[7]; third hour,26.9±12.3%
CCC=C(C)C(=O)O [2-methyl-2-pentenoic acid],InsP3 depletion,[8],strong InsP3 depletion
same,activity at 500 µM,[6],14.8%
O=C1NC(=O)C(c2ccccc2)(c2ccccc2)N1 [phenytoin],response of the status epilepticus model,[9],resistant
"CCCC(CCC)C(N)=O [valpromide, 2-propylpentamide, reference compound]",radiolabel release activity relative to control,"[1]; Table 3, 30 min, 0.5 mM",virtually no inhibition
same,inhibition of human myo-inositol synthase,[10],weak inhibition
same,activity at 500 µM,[6],69.3%
